Reference: BigSolDB 2.1

Molecule `CN(C)NC(=O)CCC(=O)O` has a solubility (mole fraction) (in 2-butoxyethanol, 283.15 K) of 0.000247, a solubility (mole fraction) (in 2-butoxyethanol, 288.15 K) of 0.000346 and a solubility (mole fraction) (in 2-butoxyethanol, 293.15 K) of 0.000471. It also gave a solubility (mole fraction) (in 2-butoxyethanol, 298.15 K) of 0.000632, a solubility (mole fraction) (in 2-butoxyethanol, 303.15 K) of 0.000905 and a solubility (mole fraction) (in 2-butoxyethanol, 308.15 K) of 0.00126. For the same molecule, the solubility (mole fraction) (in 2-butoxyethanol, 313.15 K) was 0.00162, the solubility (mole fraction) (in 2-butoxyethanol, 318.15 K) was 0.00213 and the solubility (mole fraction) (in 2-butoxyethanol, 323.15 K) was 0.00278. It also gave a solubility (mole fraction) (in 2-ethoxyethanol, 283.15 K) of 0.00176, a solubility (mole fraction) (in 2-ethoxyethanol, 288.15 K) of 0.00228 and a solubility (mole fraction) (in 2-ethoxyethanol, 293.15 K) of 0.00291. It also gave a solubility (mole fraction) (in 2-ethoxyethanol, 298.15 K) of 0.00382, a solubility (mole fraction) (in 2-ethoxyethanol, 303.15 K) of 0.00492 and a solubility (mole fraction) (in 2-ethoxyethanol, 308.15 K) of 0.00621. The solubility (mole fraction) (in 2-ethoxyethanol, 313.15 K) was 0.00767, the solubility (mole fraction) (in 2-ethoxyethanol, 318.15 K) was 0.00954 and the solubility (mole fraction) (in 2-ethoxyethanol, 323.15 K) was 0.012. For the same molecule, the solubility (mole fraction) (in 2-methoxyethanol, 283.15 K) was 0.00398, the solubility (mole fraction) (in 2-methoxyethanol, 288.15 K) was 0.00519 and the solubility (mole fraction) (in 2-methoxyethanol, 293.15 K) was 0.00634. It also gave a solubility (mole fraction) (in 2-methoxyethanol, 298.15 K) of 0.00784, a solubility (mole fraction) (in 2-methoxyethanol, 303.15 K) of 0.0096 and a solubility (mole fraction) (in 2-methoxyethanol, 308.15 K) of 0.0116. It also gave a solubility (mole fraction) (in 2-methoxyethanol, 313.15 K) of 0.014, a solubility (mole fraction) (in 2-methoxyethanol, 318.15 K) of 0.0169 and a solubility (mole fraction) (in 2-methoxyethanol, 323.15 K) of 0.0203. It also gave a solubility (mole fraction) (in 2-propoxyethanol, 283.15 K) of 0.000405, a solubility (mole fraction) (in 2-propoxyethanol, 288.15 K) of 0.000617 and a solubility (mole fraction) (in 2-propoxyethanol, 293.15 K) of 0.000794. The solubility (mole fraction) (in 2-propoxyethanol, 298.15 K) was 0.00108, the solubility (mole fraction) (in 2-propoxyethanol, 303.15 K) was 0.00144 and the solubility (mole fraction) (in 2-propoxyethanol, 308.15 K) was 0.00184. The solubility (mole fraction) (in 2-propoxyethanol, 313.15 K) was 0.00233, the solubility (mole fraction) (in 2-propoxyethanol, 318.15 K) was 0.00304 and the solubility (mole fraction) (in 2-propoxyethanol, 323.15 K) was 0.00393. It also gave a solubility (mole fraction) (in DMF, 283.15 K) of 0.0207, a solubility (mole fraction) (in DMF, 288.15 K) of 0.0245 and a solubility (mole fraction) (in DMF, 293.15 K) of 0.0293. The solubility (mole fraction) (in DMF, 298.15 K) was 0.0329, the solubility (mole fraction) (in DMF, 303.15 K) was 0.0388 and the solubility (mole fraction) (in DMF, 308.15 K) was 0.0449. It also gave a solubility (mole fraction) (in DMF, 313.15 K) of 0.0503, a solubility (mole fraction) (in DMF, 318.15 K) of 0.0568 and a solubility (mole fraction) (in DMF, 323.15 K) of 0.0645. The solubility (mole fraction) (in NMP, 283.15 K) was 0.037, the solubility (mole fraction) (in NMP, 288.15 K) was 0.042 and the solubility (mole fraction) (in NMP, 293.15 K) was 0.0481. The solubility (mole fraction) (in NMP, 298.15 K) was 0.0552, the solubility (mole fraction) (in NMP, 303.15 K) was 0.063 and the solubility (mole fraction) (in NMP, 308.15 K) was 0.0714. The solubility (mole fraction) (in NMP, 313.15 K) was 0.0813, the solubility (mole fraction) (in NMP, 318.15 K) was 0.09 and the solubility (mole fraction) (in NMP, 323.15 K) was 0.1. It also gave a solubility (mole fraction) (in acetonitrile, 283.15 K) of 0.000172, a solubility (mole fraction) (in acetonitrile, 288.15 K) of 0.000226 and a solubility (mole fraction) (in acetonitrile, 293.15 K) of 0.000296. The solubility (mole fraction) (in acetonitrile, 298.15 K) was 0.000386, the solubility (mole fraction) (in acetonitrile, 303.15 K) was 0.000503 and the solubility (mole fraction) (in acetonitrile, 308.15 K) was 0.000653. It also gave a solubility (mole fraction) (in acetonitrile, 313.15 K) of 0.000846, a solubility (mole fraction) (in acetonitrile, 318.15 K) of 0.00109 and a solubility (mole fraction) (in acetonitrile, 323.15 K) of 0.00141. It also gave a solubility (mole fraction) (in ethanol, 283.15 K) of 0.00275, a solubility (mole fraction) (in ethanol, 288.15 K) of 0.00354 and a solubility (mole fraction) (in ethanol, 293.15 K) of 0.00437. For the same molecule, the solubility (mole fraction) (in ethanol, 298.15 K) was 0.00551, the solubility (mole fraction) (in ethanol, 303.15 K) was 0.0069 and the solubility (mole fraction) (in ethanol, 308.15 K) was 0.00848. The solubility (mole fraction) (in ethanol, 313.15 K) was 0.0102, the solubility (mole fraction) (in ethanol, 318.15 K) was 0.0128 and the solubility (mole fraction) (in ethanol, 323.15 K) was 0.0164. It also gave a solubility (mole fraction) (in isopropanol, 283.15 K) of 0.000326, a solubility (mole fraction) (in isopropanol, 288.15 K) of 0.00048 and a solubility (mole fraction) (in isopropanol, 293.15 K) of 0.000752. The solubility (mole fraction) (in isopropanol, 298.15 K) was 0.0011, the solubility (mole fraction) (in isopropanol, 303.15 K) was 0.00159 and the solubility (mole fraction) (in isopropanol, 308.15 K) was 0.0022. It also gave a solubility (mole fraction) (in isopropanol, 313.15 K) of 0.00302, a solubility (mole fraction) (in isopropanol, 318.15 K) of 0.00433 and a solubility (mole fraction) (in isopropanol, 323.15 K) of 0.00579. For the same molecule, the solubility (mole fraction) (in methanol, 283.15 K) was 0.00823, the solubility (mole fraction) (in methanol, 288.15 K) was 0.0097 and the solubility (mole fraction) (in methanol, 293.15 K) was 0.0116. The solubility (mole fraction) (in methanol, 298.15 K) was 0.014, the solubility (mole fraction) (in methanol, 303.15 K) was 0.0167 and the solubility (mole fraction) (in methanol, 308.15 K) was 0.0196. It also gave a solubility (mole fraction) (in methanol, 313.15 K) of 0.0227, a solubility (mole fraction) (in methanol, 318.15 K) of 0.026 and a solubility (mole fraction) (in methanol, 323.15 K) of 0.0301. The solubility (mole fraction) (in n-pentanol, 283.15 K) was 0.000149, the solubility (mole fraction) (in n-pentanol, 288.15 K) was 0.000191 and the solubility (mole fraction) (in n-pentanol, 293.15 K) was 0.00026. The solubility (mole fraction) (in n-pentanol, 298.15 K) was 0.000344, the solubility (mole fraction) (in n-pentanol, 303.15 K) was 0.000477 and the solubility (mole fraction) (in n-pentanol, 308.15 K) was 0.000634. It also gave a solubility (mole fraction) (in n-pentanol, 313.15 K) of 0.000821, a solubility (mole fraction) (in n-pentanol, 318.15 K) of 0.00109 and a solubility (mole fraction) (in n-pentanol, 323.15 K) of 0.00145. The solubility (mole fraction) (in n-propanol, 283.15 K) was 0.000944, the solubility (mole fraction) (in n-propanol, 288.15 K) was 0.00121 and the solubility (mole fraction) (in n-propanol, 293.15 K) was 0.00161. It also gave a solubility (mole fraction) (in n-propanol, 298.15 K) of 0.00217, a solubility (mole fraction) (in n-propanol, 303.15 K) of 0.00285 and a solubility (mole fraction) (in n-propanol, 308.15 K) of 0.00367. The solubility (mole fraction) (in n-propanol, 313.15 K) was 0.00471, the solubility (mole fraction) (in n-propanol, 318.15 K) was 0.00615 and the solubility (mole fraction) (in n-propanol, 323.15 K) was 0.00768.
